Experiment [1] relates to primary cultures of myoblasts. The experiment is described as follows: Transplantation of TnI-βGal myoblasts cultured with phorbol ester (TPA). The following applies: TPA 100 ng/ml, 2 days culture, n=5 mice. Type of experiment: in vivo, mouse. The protocol: Imm 7 neo: expresses neomycin. Imm 7 Matrilysine: expresses neomycin and matrilysine. Tn I βgal: untreated transgenic mouse myoblasts expressing β-Gal. Tn I βGal+TPA: transgenic mouse myoblasts/β-Gal treated with phorbol ester.
Second experiment: primary cultures of myoblasts were obtained from transgenic mice (TnI-βGal+TPA). Myoblasts were cultured for two (2) days in the presence of phorbol ester (TPA 100 ng/ml) which also stimulates the expression metalloproteases.

Experiment [2] deals with primary myoblast cultures. The experiment is described as follows: Effects of bFGF on primary myoblast culture (cell count, desmin staining). The experiment is classed as cell-based, mouse. From the text:
Primary myoblast cultures were established from muscle biopsies of newborn transgenic mice^26. The founder mouse (TnI Lac Z1/29) was provided by Dr. Hasting (McGill University, Montreal, Canada) onto the CD1 background and was reproduced in our laboratory. This transgenic mouse expresses the β-galactosidase gene under the control of the promoter of the quail fast skeletal muscle troponin I gene^16. […] Before starting myoblast cultures, it was necessary to identify transgenic newborns by X-gal staining of a small muscle biopsy because heterozygote transgenic mice were used as parents. Myogenic cells were released from skeletal muscle fragments of the transgenic newborns by serial enzyme treatments. First, a one hour digestion was done with 600 U/ml collagenase (Sigma, St. Louis, Mo., USA). This was followed by a 30 minute incubation in Hanck's balanced salt solution (HBSS) containing 0.1% w/v trypsin (Gibco Lab, Grand Island, N.Y., USA). Satellite cells were placed in 75 cm^2 culture flasks (Coster, Cambridge, Mass., USA) in proliferating medium, i.e. 199 medium (Gibco Lab.) with 15% fetal bovine serum (Gibco Lab.), 1% penicillin (10,000 U/ml) and 1% streptomycin (10,000 U/ml).
One day after starting culture, the culture medium of some flasks was replaced by medium containing 100 ng/ml human recombinant bFGF (Sigma). Three days after starting culture, myoblasts were detached from the flasks with 0.1% trypsin followed by three suspensions in HBSS and centrifugations (6500 RPM, 5 minutes). The final cell pellet was diluted in only 40 μl of HBSS.
The primary cultures were washed with PBS and fixed with 100% methanol at −4° C. They were then washed again 3 times with PBS and incubated 1 hr with a mAb anti-human desmin (Dako, Copenhagen, Denmark) diluted 1/50 with PBS containing 1% blocking serum (i.e. 0.33% rabbit serum, 0.33% horse serum and 0.33 fetal calf serum). They were washed 3 times with PBS with 1% blocking serum and incubated 1 hr with a 1/100 dilution (in PBS with 1% blocking serum) of a rabbit anti-mouse immunoglobulin (Dako).
To try to understand the beneficial effects of bFGF on myoblast transplantation, we examined the effect of a short stimulation (2 days) with 100 ng/ml bFGF on primary myoblast cultures. The total number of cells in each flask was not significant different (31.9±6.8×10^6 with bFGF n=5, 30.0±5.8×10^6 without FGF n=9, unpaired t-test: p=0.573). […] In these cultures, there was no difference in the percentage of myogenic nuclei (nuclei in myoblasts and in myotubes) between the two groups of cultures (Table 3, line 1). More myogenic cells were however fused in the absence of bFGF (Table 3, line 2). There was an higher percentage of the total nuclei (including myoblasts, myotubes and fibroblasts) which were myoblast nuclei in cultures containing bFGF (Table 3, line 3). The increase of myoblasts was more clear when the percentage of myoblasts was calculated among mononuclear cells (excluding the myotubes) (Table 3, lines 4 and 5). This was however only a 35% increase.

In experiment [3] the test system is mdx mice. The experiment is described as follows: Intramuscular injections of bFGF after myoblast transplantation in mdx mice. The experiment is classed as in vivo, mouse. The following applies: intramuscular injections of bFGF vs HBSS control. The protocol:
(§1) The mdx mice were divided in three groups. Six mdx mice of one group were grafted in both tibialis anterior (TA) muscles: myoblasts grown with bFGF were injected in the left TA and myoblasts grown without bFGF were injected in the right TA. Myoblasts grown without bFGF were injected in only the left TA of six other mdx mice. These six mdx mice were then injected intramuscularly four times (after grafting 0, +1, +4 and +6 days) either with 10 μl of bFGF (100 ng/ml, 3 mice) or with 10 μl of HBSS (3 mice). The last five mice were grafted in both TA muscle with normal CD1 mouse myoblasts infected with replication defective retroviral vector LNPOZC7 (gift from Dr C. Cepko, Harvard, Boston, Mass.) which contains the LacZ gene. The left TA muscles were injected with 4 million myoblasts grown with bFGF, while the right TA muscles were injected with 4 million myoblasts grown without bFGF. Three days after grafting, these 5 mice were sacrificed to detect the number of β-galactosidase positive cells which survived in each TA muscle. The numbers of β-galactosidase positive cells were counted in 8 μm sections obtained at every 160 μm throughout the muscle. The total number of cells counted was multiplied by 20 to obtain an estimate of the number of surviving cells and a correction was made to account for the percentage of unlabelled cells in cultures with and without bFGF. […]

Experiment [4] relates to mdx mice. The experiment is described as follows: Survival of retrovirally labelled myoblasts 3 days after transplantation in TA muscle. As to conditions: myoblasts grown with bFGF, 4×10^6 cells injected. Type of experiment: in vivo, mouse. The protocol: as §1
The subject of the next experiment is myoblasts. As to the kind of experiment: Migration of transplanted myoblasts cultured with concanavalin A, anterior tibialis muscle of mice. The experiment is classed as in vivo, mouse. As to conditions: CMVLacZ myoblasts cultured 2 days with 20 μg/ml concanavalin A. The protocol:
Myoblasts infected with a retrovirus expressing a beta-galactosidase gene have been cultured for four days in the presence or absence of 20 μg/ml concanavalin A, a lectine which stimulates the expression of metalloproteases. These myoblasts were then injected in one single site of the anterior tibialis muscle of eight mice, in order to verify the degree with which the transplanted cells are capable of migrating through the recipient tissue. After thirty days, mice were sacrificed and the muscle tissue was harvested, frozen and 10 μm thick slices were mounted on slides. […] Therefore, the presence of metalloproteases in the preconditioning medium or during the transplantation is beneficial to the spreading of the transplanted cells from the site of the injection through the recipient muscle tissue.
First experiment: Myoblasts obtained from CMVLacZ mice (expressing a Beta-galactosidase gene) were cultured for two (2) days in the presence of twenty (20) μg/ml concanavalin A, a lectine which stimulates the expression of metalloproteases. When these myoblasts were injected in the anterior tibialis muscle of recipient mice, the migration of transplanted cells was increased by three (3) fold comparatively to myoblasts having not received the concanavalin treatment.

[5] abbreviates: with bFGF 100 ng/ml, 2 days, mean ± SD.

Regarding `CCCCCCCCCCCCCC(=O)O[C@@H]1[C@@H](C)[C@@]2(O)[C@@H](C=C(CO)C[C@]3(O)C(=O)C(C)=C[C@@H]23)[C@@H]2C(C)(C)[C@]12OC(C)=O` [TPA, phorbol ester], in experiment [1], the “area of generated fibers vs non-treated preparation” value is “four fold greater” and the “fibers generated vs non-treated preparation” value is listed as “four times more fibers”.

Turning to basic fibroblast growth factor [bFGF], the “total number of cells in each flask” value in experiment [2] (2 days with 100 ng/ml bFGF, n=5) is recorded as 31.9±6.8×10^6. Also, the “increase of the percentage of myoblasts among mononuclear cells” value in experiment [2] (2 days with bFGF vs without) was 35%. In experiment [2] (setting [5]), the “% myoblast nuclei relative to non myotube nuclei” value is reported as 32.2 ± 4.1%; the “% myoblast nuclei relative to total nuclei” value is listed as 30.9 ± 3.8%; the “% of myoblast and myotube nucleic relative to total nuclei” value was 35.1 ± 4.8%; the “% of myotube nuclei relative to total myotube and myoblast nuclei” value is reported as 11.5 ± 6.6%. Also, the “% of non-myoblast nuclei relative to non myotube nuclei” value in experiment [2] (setting [5]) stood at 67.8 ± 4.1%. Further, in the experiment with mdx mice [3], the “difference in the percentage of hybrid or donor muscle fibers vs HBSS injections” value is “No significant difference”. In addition, the “number of β-galactosidase positive cells 3 days after transplantation” value with mdx mice [4] (left TA muscles, 5 mice) was 3.29±1.54×10^5 cells. Besides, in the experiment with mdx mice [4], the “% of the injected cells surviving at 3 days” value is on record as 8.2%.

Turning to concanavalin A, the “increase of migration of transplanted cells vs untreated myoblasts” value in the experiment with myoblasts amounted to 3 fold.
